Counter-ions that a name gives are not always drawn. Like-named read-outs stand apart in the source and are kept apart here.
Key:
[1] = tested on: human suspension cell line U 937; assay: Absorption of cells at 690 nm after treatment with different reagents; type: cell-based; conditions: reagent final concentration 1% (v/v)
Procedure: The human suspension cell line U 937 was cultured in RPMI 1640 medium (Sigma Company) containing 10% foetal calf serum and 2 mM glutamine. The cells were then washed in fresh RPMI medium and adjusted to 25,000, 50,000 and 100,000 cells/100 μl. 100 μl thereof was in each case transferred to a 96-well standard microtitre plate. 50 μl RPMI medium containing the appropriate reagents was added by pipette to each of the cell solutions.
The absorption of each well was measured at a wavelength of 690 nm after 5 min and 75 min incubation.

[2] = tested on: LDH; type: biochemical, human; conditions: SDS 3% (v/v), sodium oxamate 15 mM, Triton X100 1% (v/v); for Absorption 0 min after adding stop reagent / Absorption 30 min after adding stop reagent / Absorption 120 min after adding stop reagent: 492 nm, lysate of 5000 cells, reaction time 5 min
[3] = tested on: LDH; conditions: 0.2 M HCl, Triton X100 1% (v/v)
Procedure: In another experiment HCl and NaOH were used as a stop reagent.
For this purpose cell-free lysates each of 1000 cells were used in an LDH test with the components from the Cytotoxicity Detection Kit (LDH) containing the modified dye solution. After a reaction time of 30 min different stop reagents were added to these mixtures and the absorption was monitored at 492 nm (the absorption maximum of reduced INT).

[4] = 492 nm, lysate of 1000 cells, reaction time 30 min

Row | Molecule | Absorption after 5 min ([1]; 25 000 U 937 cells) | Absorption after 75 min ([1]; 25 000 U 937 cells) | Absorption after 5 min ([1]; 50 000 U 937 cells) | Absorption after 75 min ([1]; 50 000 U 937 cells) | Absorption after 5 min ([1]; 100 000 U 937 cells) | Absorption after 75 min ([1]; 100 000 U 937 cells) | Absorption 0 min after adding stop reagent [2] | Absorption 30 min after adding stop reagent [2] | Absorption 120 min after adding stop reagent [2] | Termination of the LDH reaction (in words) [2] | Termination of the LDH reaction (in words) [3] | Absorption 0 min after adding stop reagent [3, 4] | Absorption 30 min after adding stop reagent [3, 4] | Absorption 120 min after adding stop reagent [3, 4]
1 | CCCCCCCCCCCCCCCC[N+](C)(C)C.[Br-] [CTAB, cetyltrimethylammonium bromide] | 0.006 | 0.003 | 0.031 | 0.014 | 0.025 | 0.018 |  |  |  |  |  |  |  | 
2 | CCCCCCCCCCCCN(C)CC(=O)O [N-laurylsarcosine] | 0.001 | 0.002 | 0.003 | 0.004 | 0.012 | 0.013 |  |  |  |  |  |  |  | 
3 | octylphenoxypolyethoxyethanol [Triton X100] | 0.001 | 0.001 | 0.004 | 0.004 | 0.008 | 0.008 |  |  |  |  |  |  |  | 
4 | NC(=O)C(=O)[O-].[Na+] [sodium oxamate] |  |  |  |  |  |  | 0.113 | 0.127 | 0.179 | stop the LDH reaction |  |  |  | 
5 | CCCCCCCCCCCCOS(=O)(=O)[O-].[Na+] [SDS, sodium dodecyl sulphate] | 0.002 | 0.003 | 0.006 | 0.006 | 0.010 | 0.010 | 0.113 | 0.113 | 0.105 | stop the LDH reaction |  |  |  | 
6 | Cl [HCl] |  |  |  |  |  |  |  |  |  |  | suitable stop reagent | 0.275 | 0.271 | 0.261
7 | CCCCCCCCCCCC[N+](C)(C)C.[Br-] [DTAB, dodecyltrimethylammonium bromide] | 0.005 | 0.006 | 0.012 | 0.011 | 0.024 | 0.021 |  |  |  |  |  |  |  | 

From patent US7919268B2, “Reducing sample turbidity in measurement of enzymatic activity in cell lysates” (Roche Diagnostics Operations, Inc., priority 2005, dated 2011)
